Values of other authors in US9857354B2, “Compositions and methods for prognosis and treatment of neoplasm” (NOVAZOI THERANOSTICS, INC., priority 2014, dated 2018).

How the values were obtained:
[1] = tested on: BT-549 breast cancer cells; settings: BT-549 breast cancer cells with amplified centrosomes
[2] = target: T1, KIFC1/microtubule (MT) binary complex (Homo sapiens, UniProt Q9BW19); settings: ATP-competitive and MT-noncompetitive; read-out: Ki, inhibition of MT-stimulated KIFC1 enzymatic activity
T1 sequence (Q9BW19 1-673): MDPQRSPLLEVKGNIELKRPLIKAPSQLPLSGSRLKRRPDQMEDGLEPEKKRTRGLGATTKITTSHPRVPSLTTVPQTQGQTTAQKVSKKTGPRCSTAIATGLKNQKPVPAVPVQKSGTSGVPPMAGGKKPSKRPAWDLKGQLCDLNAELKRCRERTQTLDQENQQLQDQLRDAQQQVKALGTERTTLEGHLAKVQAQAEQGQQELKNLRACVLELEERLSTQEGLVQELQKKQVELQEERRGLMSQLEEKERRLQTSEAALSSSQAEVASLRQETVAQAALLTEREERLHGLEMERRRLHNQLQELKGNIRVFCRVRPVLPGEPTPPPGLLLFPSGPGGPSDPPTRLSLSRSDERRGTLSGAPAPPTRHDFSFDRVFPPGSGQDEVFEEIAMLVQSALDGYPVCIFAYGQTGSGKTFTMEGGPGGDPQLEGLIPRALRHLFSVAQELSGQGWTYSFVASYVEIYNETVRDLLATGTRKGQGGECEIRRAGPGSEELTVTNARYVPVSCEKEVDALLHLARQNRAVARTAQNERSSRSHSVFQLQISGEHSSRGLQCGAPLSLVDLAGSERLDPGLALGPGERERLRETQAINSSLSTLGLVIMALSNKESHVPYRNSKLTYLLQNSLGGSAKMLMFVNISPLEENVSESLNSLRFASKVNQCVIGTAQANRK

CCCc1cc(C(=O)N[C@H](Cc2ccc(-c3cccc(OC(F)(F)F)c3)nc2)C(=O)N[C@@H]2CCNC2)sc1C [AZ82]
centrosome declustering [1]: causes centrosome declustering
Ki [2]: 43 nM
